According to paper PMC9313597, “In Vitro and in Silico Analysis of Phytochemicals From Fallopia dentatoalata as Dual Functional Cholinesterase Inhibitors for the Treatment of Alzheimer’s Disease” (Frontiers in Pharmacology, 2022):
“And” between values parts separate entries of the source, which are not always exact repeats. Identical values can stand only once. Like-named read-outs stand apart in the source and are kept apart here.

Columns and labels:
AChE [1] = target: T1, AChE (Electrophorus electricus, UniProt O42275); experiment: biochemical; conditions: for inhibition at 100 µM: read-out: Inhibition of AChE; for IC50: 0.05 Unit/mL enzyme, pH 7.4, 37°C, 30 min, triplicate, mean ± SEM
T1 construct: purchased Sigma-Aldrich Co. (St. Louis, Missouri, United States) C3389
Experimental: (§1) All HPLC solvents were purchased from Guangdong Guanghua Sci-Tech Co. Ltd. (Guangzhou, China). […] All chemicals and solvents used in column chromatography and assays were acquired from commercial sources.
(§2) 25 µL of 1 mM DTNB [5,5′-dithiobis (2-nitrobenzoic acide)] and 25 µL of 5 mM substrate, acetylthiocholine iodide (A5751), and butyrylthiocholine iodide (B3253) were sequentially added to wells in the plate. […] The inhibition ratio was calculated using the equation: Inhibitory activity(%)=[(ΔC-ΔI)/ΔC]×100 Where C and I are the intensity of control and inhibitor after 20 min, respectively.
(§3) Compounds were first evaluated in vitro for their inhibitory activities against AChE and BuChE at a concentration of 100 µM.

BuChE [2] = target: T2, BuChE (Equus caballus, UniProt P81908); experiment: biochemical; format: biochemical; conditions: for inhibition at 100 µM: read-out: Inhibition of BuChE; for IC50: 0.05 Unit/mL enzyme, pH 7.4, 37°C, 30 min, triplicate, mean ± SEM
T2 construct: purchased Sigma-Aldrich Co. (St. Louis, Missouri, United States) C1057
Experimental: as §1, §2, §3

BuChE [3] = target: T2, BuChE; experiment: Enzyme kinetics on BuChE (Lineweaver-Burk and Dixon plots); format: biochemical; conditions: for Ki: Dixon plots, read-out: BuChE K i; for BuChE Inhibition type: Lineweaver-Burk plots, compound 2–90 µM, substrate 0.07–5 mM
Experimental: (§4) […]. This was achieved by performing enzyme kinetic studies on AChE/BuChE in the presence of different concentrations of compounds 30–34 (2–90 µM) at various steady-state substrate concentrations (0.07–5 mM). The interactions between compounds and cholinesterase are represented using classic double-reciprocal Lineweaver-Burk and Dixon plots ([Lineweaver and Burk, 1934]; [Dixon, 1953]). […] The resulting linear equations for compounds 30–34 with BuChE led to a series of lines with different slopes that crossed at similar intercepts on the vertical axis and different points on the horizontal axis.

AChE [4] = target: T1, AChE; experiment: Enzyme kinetics on AChE (Lineweaver-Burk and Dixon plots); format: biochemical; conditions: for Ki: Dixon plots, read-out: AChE K i; for AChE Inhibition type: Lineweaver-Burk plots, compound 2–90 µM, substrate 0.07–5 mM
Experimental: as §4

T1 sequence (O42275 24-633): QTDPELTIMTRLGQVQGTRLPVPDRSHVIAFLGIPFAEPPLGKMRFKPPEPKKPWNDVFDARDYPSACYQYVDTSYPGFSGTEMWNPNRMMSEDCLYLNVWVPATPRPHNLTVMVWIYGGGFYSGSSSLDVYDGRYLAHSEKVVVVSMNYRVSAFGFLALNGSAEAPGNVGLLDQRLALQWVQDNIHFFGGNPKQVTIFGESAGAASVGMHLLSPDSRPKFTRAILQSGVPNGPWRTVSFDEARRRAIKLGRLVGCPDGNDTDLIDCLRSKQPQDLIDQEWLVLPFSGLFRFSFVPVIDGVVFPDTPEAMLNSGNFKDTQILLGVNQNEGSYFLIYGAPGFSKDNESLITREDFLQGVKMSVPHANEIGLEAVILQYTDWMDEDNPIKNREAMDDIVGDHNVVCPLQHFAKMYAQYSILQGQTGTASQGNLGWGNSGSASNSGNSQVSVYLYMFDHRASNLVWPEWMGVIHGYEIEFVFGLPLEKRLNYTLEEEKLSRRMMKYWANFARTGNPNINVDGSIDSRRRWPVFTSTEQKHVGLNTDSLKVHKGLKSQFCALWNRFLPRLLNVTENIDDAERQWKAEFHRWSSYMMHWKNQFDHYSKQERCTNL
T2 sequence (P81908 whole entry): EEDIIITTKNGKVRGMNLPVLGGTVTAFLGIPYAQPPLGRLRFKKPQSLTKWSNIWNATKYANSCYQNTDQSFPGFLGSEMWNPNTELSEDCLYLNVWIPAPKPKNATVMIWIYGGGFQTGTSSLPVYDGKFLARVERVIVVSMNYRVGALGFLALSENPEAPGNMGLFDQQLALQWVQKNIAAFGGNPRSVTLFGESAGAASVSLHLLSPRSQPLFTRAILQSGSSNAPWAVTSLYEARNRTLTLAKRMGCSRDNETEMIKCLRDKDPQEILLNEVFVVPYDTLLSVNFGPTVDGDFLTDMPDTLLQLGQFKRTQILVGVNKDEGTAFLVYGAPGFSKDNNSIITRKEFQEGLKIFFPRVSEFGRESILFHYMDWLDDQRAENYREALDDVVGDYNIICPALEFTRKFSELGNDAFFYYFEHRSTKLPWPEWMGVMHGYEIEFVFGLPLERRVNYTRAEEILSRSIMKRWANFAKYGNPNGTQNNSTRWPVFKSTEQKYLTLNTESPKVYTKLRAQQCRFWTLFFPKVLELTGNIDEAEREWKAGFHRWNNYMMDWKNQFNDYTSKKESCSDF

Row | Compound | inhibition at 100 µM (AChE [1]) [%] | inhibition at 100 µM (BuChE [2]) [%] | IC50 (AChE [1]) [µM] | IC50 (BuChE [2]) [µM] | Ki (BuChE [3]) | BuChE Inhibition type (BuChE [3]) | inhibition at 100 µM (AChE [1]; at 100 µM) [%] | inhibition at 100 µM (BuChE [2]; at 100 µM) [%] | BuChE inhibitory activity relative to Compound 34 (BuChE [2]; from IC50 values (7.5 vs 17.1 µM)) | Ki (AChE [4]) [µM] | AChE Inhibition type (AChE [4])
1 | O=c1c(O[C@@H]2O[C@H](CO)[C@@H](O)[C@H](O)[C@H]2O)c(-c2ccc(O)cc2)oc2cc(O)cc(O)c12 [Compound 5, astragalin] | > 50 | > 50 |  |  |  |  |  |  |  |  | 
2 | smilaside J [Compound 33] |  |  | 56 ± 2.4 | 10.1 ± 4.6 | ~8.5 µM | Competitive |  |  |  |  | 
3 | Oc1cc(O)c2c(c1)O[C@H](c1ccc(O)c(O)c1)[C@H](O)C2 [Compound 19, (-)-epicatechin] |  |  |  |  |  |  | > 50 | > 50 |  |  | 
4 | COc1cc(/C=C/C(=O)OC[C@H]2O[C@H](O[C@]3(COC(=O)/C=C/c4ccc(O)cc4)O[C@H](COC(=O)/C=C/c4ccc(O)cc4)[C@@H](O)[C@@H]3OC(=O)/C=C/c3ccc(O)cc3)[C@H](O)[C@@H](O)[C@@H]2O)ccc1O [Compound 31, vanicoside B] |  |  | 32.3 ± 4.7 | 7.5 ± 4.1 | ~3.5 µM | Competitive | > 60 |  | over 2 fold | ~30 | non-competitive inhibitors
5 | COc1cc(/C=C/C(=O)OC[C@H]2O[C@H](O[C@]3(COC(=O)/C=C/c4ccc(O)c(OC)c4)O[C@H](COC(=O)/C=C/c4ccc(O)cc4)[C@@H](O)[C@@H]3OC(=O)/C=C/c3ccc(O)cc3)[C@H](O)[C@@H](O)[C@@H]2O)ccc1O [Compound 32, lapathoside A] |  |  | 30.6 ± 4.7 | 2.7 ± 1.7 | ~1.8 µM | Competitive | > 60 |  |  | ~34.4 | non-competitive inhibitors
6 | smilaside G [Compound 34] |  |  | > 100 | 17.1 ± 3.4 | 17.5 µM and ~17.5 µM | Competitive |  |  |  |  | 
7 | O=c1cc(-c2ccc(O)cc2)oc2cc(O)cc(O)c12 [Compound 1, apigenin] | > 50 |  |  |  |  |  |  | > 50 |  |  | 
8 | COc1cc(/C=C/C(=O)OC[C@H]2O[C@@](COC(=O)/C=C/c3ccc(O)c(OC)c3)(O[C@H]3O[C@H](COC(=O)/C=C/c4ccc(O)c(OC)c4)[C@@H](O)[C@H](O)[C@H]3O)[C@@H](OC(=O)/C=C/c3ccc(O)cc3)[C@@H]2O)ccc1O [Compound 30, lapathoside B] |  |  | > 100 | 10.9 ± 4.9 | ~12.1 µM | Competitive |  |  |  |  | 
